Earlier results, collected in PMC12866986 (European journal of medicinal chemistry, 2026).

How the values were obtained:
Caco-2 cells = conditions: cited from earlier work
Src = conditions: at 10 μM; cited from earlier work
gut mucosal wound = conditions: cited from earlier work
Pyk2 = conditions: at 10 μM; cited from earlier work

CN(C)C(CNC(=O)Nc1cc(C(F)(F)F)ccc1N1CCOCC1)c1ccncc1 (stereo not shown) [Compound 5a, 1-(2-(dimethylamino)-2-(pyridin-4-yl)ethyl)-3-(2-morpholino-5-(trifluoromethyl)phenyl)urea]
epithelial sheet migration in vitro (Caco-2 cells): induces epithelial sheet migration | Src activation (Src): does not activate | gut mucosal wound healing in vivo (gut mucosal wound): stimulates gut mucosal wound healing | Pyk2 activation (Pyk2): does not activate
